In patent US11980658B2, “Immunotherapeutic molecules and uses thereof” (priority 2012, dated 2024):
“Also recorded” adds a separate entry of the source. Where no end group is shown, it is not given here.

What was measured:
Type in all cases: cell-based, human
HLA-DR, HLA-DQ, HLA-DP = experiment: HLA class II restriction of epitope recognition by TCL (blocking mAbs); details: anti-HLA-DR, -DP or -DQ mAbs
Method: (§1) All culturing was performed in RPMI-1640 containing 2 mM L-glutamine, 100 IU/mL penicillin-streptomycin and 5% heat-inactivated human AB serum (Sigma-Aldrich, St Louis, USA) (cRPMI). Antigen-induced TCL proliferation was assessed by ^3H-thymidine (3H-TdR) uptake assays as described (Prickett et al. 2011 supra). A stimulation index (SI; cpm antigen-stimulated T cells/cpm unstimulated T cells) >2.5 was considered positive and all positive responses confirmed in >2 assays. HLA-restriction of epitope recognition by TCL was assessed using monoclonal antibodies (mAb) against HLA-DR (L243), HLA-DQ (SVP-L3) or HLA-DP (B7/21) to block epitope presentation as described (Prickett et al. 2011 supra). To allow detection of peptide-induced CD4+ T-cell proliferation within whole PBMC, 7-day cultures of CFSE-labelled PBMC were set up as described for TCL generation (Prickett et al. 2011 supra). At least 10,000 CD4^+ T cells were analyzed per sample and SI calculated as percentage of CD4^+CFSE^lo (proliferated) cells with antigen/percentage of CD4^+CFSE^lo cells without antigen (background). The detection threshold for a specific response in this assay was assessed by expanding peptide-specific TCL from proliferated CD4^+ cells over a range of SI values for three subjects. Specific TCL could be generated from divided T cells with SI as low as 1.1 in all three subjects (data not shown) allowing designation of an SI>1.1 as positive.
There is no identified HLA-II association with peanut allergy (Shreffler et al. Ann Allergy Asthma Immunol 2006; 96(6):865-9), therefore peptides selected for therapy must bind diverse HLA-II molecules for wide applicability. To determine the HLA-II type presenting each epitope, anti-HLA-DR, -DP or -DQ mAbs were used to block individual epitope presentation to T cells. […] At least two subjects and/or TCL were tested per epitope (FIG. 8).

basophils = experiment: Basophil activation test (CD63 upregulation by flow cytometry)
Method: Basophil activation was assessed by CD63 upregulation detected by flow cytometry as described (Drew et al. J Immunol. 2004; 173(9):5872-9). Positive controls were rabbit anti-human IgE antibody (7.5 ug/mL; DAKO Corporation, CA, USA), N-formyl-methionine-leucine-phenylalanine (fMLP) (0.4 ug/mL; Sigma) and CPE. CPE, Ara h 1 and peptides were tested over a 3-log concentration range (5, 0.5 and 0.05 ug/mL)

[1] = system: Ara h 1-specific CD4+ T-cell lines (TCL); experiment: Antigen-induced TCL proliferation, 3H-thymidine uptake assay; details: for Donor responder frequency for TCL recognition of Ara h 1 20-mer peptides: n=18 peanut-allergic subjects, SI≥2.5
From the text: Ara h 1-specific oligoclonal TCL were generated from peripheral blood mononuclear cells (PBMC) of peanut-allergic subjects using 5,6-carboxyfluorescein diacetate succinimidylester (CFSE)-based methodology (Mannering et al. J Immunol Methods. 2005; 298(1-2):83-92) as described (Prickett et al. 2011 supra), with CPE ([…]), Ara h 1 (10 gg/mL) or 20-mer peptides spanning the Ara h 1 sequence (11 amino acid (aa) overlap (17 aa overlap for the last peptide); Table 5; 10 pg/mL/peptide) as the driving antigens. All TCL were tested for specificity (proliferation) to individual Ara h 1 20-mers (10 pg/mL) as well as CPE ([…]) and/or Ara h 1 (10 pg/mL) Core epitope sequences were mapped within selected 20-mers using peptide sets truncated from the N- or C-terminus of the 20-mer as described (Prickett et al. 2011 supra).
as §1

GDVFIMPAAHPVAINASS (Chemcially synthezised) [(507-524)]
HLA class II restriction (mAb that blocked epitope recognition) (HLA-DR, HLA-DQ, HLA-DP): blocked by anti-HLA-DR for some TCL but by anti-HLA-DQ for others; also recorded: HLA-DQ restricted

WSTRSSENNEGVIVKVSKE [(353-371)]
HLA class II restriction (mAb that blocked epitope recognition) (HLA-DR, HLA-DQ, HLA-DP): blocked by anti-HLA-DQ in both subjects tested

NNFGKLFEVKPDKKNPQLQ [(409-427), NNFGKLFEVKPDKKNPQLQ]
Basophil activation (percentage of activated CD63hi basophils) (basophils): 8%

VEIKEGALMLPHFNSKA (Chemcially synthezised) [(436-452)]
HLA class II restriction (mAb that blocked epitope recognition) (HLA-DR, HLA-DQ, HLA-DP): blocked by anti-HLA-DR for some TCL but by anti-HLA-DQ for others

FQNLQNHRIVQIEAKPNTLV [(206-225)]
TCL stimulation / recognition (in words) [1]: efficiently stimulated TCL specific for either epitope

KAMVIVVVNKGTGNLELVAV (Chemcially Synthezised) [compound 51]
TCL stimulation / recognition (in words) [1]: efficiently stimulated TCL specific for either epitope | Donor responder frequency for TCL recognition of Ara h 1 20-mer peptides [1]: 33%

ALMLPHFNSKAMVIVVVNKG [compound 50]
Donor responder frequency for TCL recognition of Ara h 1 20-mer peptides [1]: 33%

ALMLPHFNSKAMVIVVV (Chemcially synthezised) [(442-458)]
HLA class II restriction (mAb that blocked epitope recognition) (HLA-DR, HLA-DQ, HLA-DP): HLA-DR-restricted

B1: Ara h 1: major peanut allergen, 7S seed storage glycoprotein or vicilin, enriched from CPE by liquid chromatography (protein, listed as Homo sapiens)
chain: MRGRVSPLMLLLGILVLASVSATHAKSSPYQKKTENPCAQRCLQSCQQEPDDLKQKACESRCTKLEYDPRCVYDPRGHTGTTNQRSPPGERTRGRQPGDYDDDRRQPRREEGGRWGPAGPREREREEDWRQPREDWRRPSHQQPRKIRPEGREGEQEWGTPGSHVREETSRNNPFYFPSRRFSTRYGNQNGRIRVLQRFDQRSRQFQNLQNHRIVQIEAKPNTLVLPKHADADNILVIQQGQATVTVANGNNRKSFNLDEGHALRIPSGFISYILNRHDNQNLRVAKISMPVNTPGQFEDFFPASSRDQSSYLQGFSRNTLEAAFNAEFNEIRRVLLEENAGGEQEERGQRRWSTRSSENNEGVIVKVSKEHVEELTKHAKSVSKKGSEEEGDITNPINLREGEPDLSNNFGKLFEVKPDKKNPQLQDLDMMLTCVEIKEGALMLPHFNSKAMVIVVVNKGTGNLELVAVRKEQQQRGRREEEEDEDEEEEGSNREVRRYTARLKEGDVFIMPAAHPVAINASSELHLLGFGINAENNHRIFLAGDKDNVIDQIEKQAKDLAFPGSGEQVEKLIKNQKESHFVSARPQSQSQSPSSPEKESPEKEDQEEENQGGKGPLLSILKAFN
Basophil activation (percentage of activated CD63hi basophils) (basophils): 80-90%
